US10668049B2, “Methods of treating cognitive decline with transforming growth factor beta inhibitors” (The Regents of the University of California, priority 2008, dated 2020)

Columns and labels:
[1] = target: T1, astrocyte specific glutamate transporter, SLC1A2 (Rattus norvegicus, UniProt P31596); test: Whole cell patch recording of NMDA-mediated EPSCs in cortical pyramidal neurons; assay type: cell-based; details: DHK 100 μM
T1 construct: In vitro intracellular recordings were obtained from pyramidal neurons (layer 2-3) 23-28 h following the in vivo treatment; from tissue; host or cells: acute rat neocortical slices (astrocytic transporter; recordings from layer 2-3 pyramidal neurons)
Method: In vitro intracellular recordings were obtained from pyramidal neurons (layer 2-3) 23-28 h following the in vivo treatment with albumin or from control rats. Currents were recorded using the whole cell patch configuration, as described previously (Pavlovsky et al., 2003). In brief, glass pipettes were pulled from capillaries using a vertical puller (Narashige, Greenvale, N.Y.) and filled with a solution comprising (in mM): 150 CsCl, 1 MgCl2, 10 HEPES, 4 Na2ATP, 0.1 CaCl2, and 1.1 mM EGTA, pH adjusted to 7.2 with a final osmolarity of 290-310 mOsm. Cells were visualized using infrared differential interference phase contrast video-microscopy. Recordings were performed using AxoPatch 700B (Axon Instruments, Foster City, Calif.), digitized at 10 kHz and recorded using pClamp 9.2 (Axon Instruments, Foster City, Calif.). Patch pipette's resistance was 4-5 MΩ. Series resistance was not electronically compensated; however, cells in which series resistance varied by more than 25% were excluded from the analysis. Stimulation protocols were started at least 5 min following impalement to allow intracellular dialysis with the pipette solution. Excitatory post-synaptic currents (EPSCs) were evoked—using a bipolar stimulating electrode positioned <200 μm from the recorded cell—at 75% of the intensity producing maximal EPSCs. N-methyl-D-aspartic acid (NMDA) currents were recorded in the presence of blockers of α-amino-3-hydroxy-5-methyl-4-isoxazole-propionic acid (AMPA)/kainate (i.e., 30 μM CNQX) and of gamma-aminobutyric acid A (GABAA) receptors (i.e., 10 μM bicuculine methiodide). Cells were voltage clamped to +40 mV to alleviate NMDA receptor blockade and inactivate fast Na^+ currents. In some experiments, dihydrokainic acid (DHK, Tocris, Bristol, UK), 100 μM, was added to the extracellular solution to selectively block the astrocyte specific glutamate transporter, SLC1A2 (see Arriza et al., 1994).
To confirm that the transcriptional changes induced by albumin were associated with altered cellular functions, the clearance of extracellular glutamate and potassium in cortical slices 24 hours following albumin treatment in vivo was investigated. To measure synaptic glutamate levels during neuronal activation, the slowly inactivating (Lester et al., 1990) NMDA currents in cortical neurons were recorded by using the whole-cell patch configuration (in the presence of non-NMDA glutamate and GABA receptor blockers, see Methods). Cells were clamped at +40 mV to prevent a potential confounding effect of post-synaptic depolarization due to the accumulation of synaptic [K^+]o. […] Synaptic glutamate elicited by 50 extracellular stimulations at 2, 5, 10, 20, 50 and 100 Hz before and after adding the astrocytic SLC1A2 specific inhibitor, DHK was measured. In neurons from control animals, DHK had no effect on single EPSCs or EPSCs elicited at low stimulation frequencies (<20 Hz). […] The same experiments were then repeated 24 h following cortical application of albumin (i.e. during epileptogenesis). In contrast to the control experiments, DHK had no effect on EPSC amplitude in treated slices (FIG. 13b-c, right), supporting reduced expression of the astrocytic transporter SLC1A2.

[2] = tested on: albumin-induced epileptogenesis; test: EEG recording from awake rats during albumin-induced epileptogenesis; assay type: in vivo, rat
[3] = tested on: neocortical slices; test: Field potential recordings of epileptiform activity in neocortical slices; assay type: cell-based, rat
Method: Brain slices for the in vitro experiments were prepared by means of standard techniques (Ivens et al., 2007; Pavlovsky et al., 2003; Seiffert et al., 2004). Slices were transferred to a recording chamber where they were incubated in aCSF containing BSA (6.7 mg/ml), TGF-β1 (10 ng/ml) or artificial serum (aSerum, composition based on aCSF with the following changes, composition in mM: 0.8 MgSO4, 1.3 CaCl2, 5.7 KCl, 1 L-glutamine, 0.1 albumin). To block the activity of TGF-β1, slices were incubated in aCSF containing SB431542 (10 μM) before the addition of TGF-β1 (10 ng/ml). To block TGF-βRs, slices were incubated in aCSF containing SB431542 (10 μM) and TGF-βRII antibody (10 μg/ml) for 30 min followed by incubation in BSA in the presence of TGF-βR blockers. For detection of epileptiform activity, field potentials were recorded >4 h following incubation in cortical layer IV using extracellular glass microelectrodes (˜3 MΩ) in response to bipolar stimulation at the border of white and grey matter.
To assess the hypothesis that activation of the TGF-β signaling pathway is the mechanism underlying albumin-induced epileptogenesis, we activated this pathway directly by incubating neocortical slices with TGF-β1 (10 ng/mL) in artificial cerebrospinal fluid (aCSF) and performed electrophysiological recordings. These recordings were compared to those of slices treated with a solution containing serum levels of electrolytes and 0.1 mM albumin (aSERUM, previously shown to induce epileptogenesis; Ivens et al., 2007), albumin in aCSF, or aCSF (control). […] When albumin was added to the control aCSF solution, epileptiform activity was recorded in response to stimulation of the white matter (n=8 out of 12 slices, 6 animals). Importantly. TGF-β1 treatment was sufficient to recapitulate epileptiform activity similar to that seen following treatment with aSERUM and albumin in aCSF (n=5 out of 5 slices, 4 animals; n=7 out of 9 slices, 3 animals; and n=8 out of 12 slices, 6 animals, respectively). In all three cases, the evoked epileptiform activity, was all-or-none in nature, paroxysmal and prolonged, similar to that seen following BBB opening with bile salts (Ivens et al., 2007; Seiffert et al., 2004) and typical to that observed in acute models of epilepsy (Gutnick et al., 1982).
To further confirm that the TGF-β1 induced epileptiform activity was dependent on the TGF-βR mediated pathway, we performed additional trials of the above experiments in the presence of two TGF-βR blockers (SB431542, the TGF-βRI kinase activity inhibitor and TGF-βRII antibody).

T1 sequence (P31596 whole entry): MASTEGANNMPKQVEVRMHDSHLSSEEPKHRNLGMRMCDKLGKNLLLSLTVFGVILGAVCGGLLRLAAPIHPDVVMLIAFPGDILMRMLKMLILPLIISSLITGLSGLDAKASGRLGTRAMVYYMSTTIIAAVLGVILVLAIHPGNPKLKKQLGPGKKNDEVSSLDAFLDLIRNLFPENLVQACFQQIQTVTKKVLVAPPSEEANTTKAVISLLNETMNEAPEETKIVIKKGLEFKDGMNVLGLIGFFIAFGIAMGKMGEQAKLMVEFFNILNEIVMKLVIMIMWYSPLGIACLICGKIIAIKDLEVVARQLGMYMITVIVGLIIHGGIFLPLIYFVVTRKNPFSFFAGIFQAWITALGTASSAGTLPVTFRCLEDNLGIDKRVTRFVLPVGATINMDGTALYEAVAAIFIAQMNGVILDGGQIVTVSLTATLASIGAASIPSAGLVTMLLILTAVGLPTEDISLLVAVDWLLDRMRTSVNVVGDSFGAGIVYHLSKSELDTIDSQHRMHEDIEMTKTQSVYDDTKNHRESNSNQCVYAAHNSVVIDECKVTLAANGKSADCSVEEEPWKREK

Molecule: CC(C)[C@H]1CN[C@H](C(=O)O)[C@H]1CC(=O)O [DHK, dihydrokainic acid, reference compound]
- effect on NMDA currents at stimulation frequencies >20 Hz ([1]; neurons from control animals): increased NMDA currents
- effect on single EPSCs or EPSCs elicited at low stimulation frequencies (<20 Hz) ([1]; neurons from control animals): no effect
- effect on EPSC amplitude ([1]; slices 24 h following cortical application of albumin): no effect

Molecule: CCCCc1nc(Cl)c(CO)n1Cc1ccc(-c2ccccc2-c2nnn[nH]2)cc1.[K] [Losartan, 2-butyl-4-chloro-1-[p-(o-1H-tetrazol-5-ylphenyl)benzyl]imidazole-5-methanol, monopotassium salt, reference compound]
- number of seizure like events (SLEs) ([2]; losartan-treated rats (n=7) compared to BSA-treated ones (n=8)): significantly smaller
- albumin-induced EEG changes (signal harmony, complexity) during epileptogenesis ([2]; single, focal application together with BSA, 10 μM): reversed the albumin-induced EEG changes

Molecule: TGF-β1: TGF-β1 (10 ng/ml, Peprotech), used to activate the TGF-β pathway
- integral of the field potential ([3]; inducer alone, without TGF-βR blockers): 84.1±20.1 mV*ms
- evoked epileptiform activity in response to stimulation of the white matter, slices showing it ([3]; slices incubated with the inducer): 5 out of 5
